# From patent publication US20090253134A1, “Cellular Pyrogen Test” (Fraunhofer-Gesellschaft zur Forderung der angewandten …, priority 2006, published 2009)
# “Also recorded” adds a separate entry of the source.
# Assays:
# TLR-4/CD14 [1] = target: T1, TLR-4/CD14 (Homo sapiens, UniProt O00206+Q9Y6Y9); assay: NIH-3T3 TLR-4/CD14 SEAP reporter gene pyrogen test; type: cell-based
# T1 construct: expressed in transfected cells; host or cells: NIH-3T3 (murine fibroblasts), clone 4/5
# Description: The cell line NIH-3T3 was transfected with a TLR-4/CD14 complex as well as the reporter gene plasmid SEAP/ELAM-1.
# The endotoxin (LPS)-mediated induction of TLR-4 leads according to a signal cascade to activation of the transcription factor NF-κB. Expression of the reporter gene SEAP is controlled by an ELAM-1 promoter inducible by NF-κB. NF-κB activation and therefore specifically secretion of SEAP then occurs on induction of TLR-4 by the endotoxin lipopolysaccharide LPS.
# NIH-3T3 TLR-4/CD14 clone 4/5 P35 in a density of 30,000 to 200,000 cells/well (24-well) (corresponding cell count for other well volume) are inoculated in 500 μL/well in 0.5% FCS medium o/n for adhesion.
# On the next day detection occurs by incubation with 300 μL/well detection medium, which is added directly to the induced cells: in the induced cells SEAP activity converts the substrate BCIP in the detection medium to a dark blue insoluble end product (indigo). As an alternative SEAP activity in the induced cells converts the substrate pNPP in the detection medium to a light yellow soluble color complex, which is determined photometrically at about 405 nm. The photometric analysis occurs about 2 hours after addition of the detection medium.
# In one variant transfected cell lines are frozen in the corresponding assay format, here: a cell culture-well-plate (multiwell plate) in corresponding density (200,000 cells/well in 500 μL each (in 24-well)).
# After thawing of the kit, addition of DMEM culture medium occurs for adhesive of the cells overnight. A medium with HEPES buffer permits incubation of the cell test in a heating cabinet, i.e., without CO2 gassing. Induction is carried out per test by addition of 100 ng/mL LPS. The detection is conducted after 24 hours by addition of 300 μL/well BCIP detection medium.
# On a multiwell plate (96-well) NIH-3T3 TLR-4/CD14 SEAP P40 cells were frozen in a density of 30,000 cells/well in 100 μL medium (DMEM 80 mmol/L HEPES, 30% FCS and 5% DMSO) in suspension at −80° C.
# After 72 hours to 4 weeks at −80° C. the cells were thawed by addition of 100 μL medium (10% FCS) at 37° C. […]
# TLR-5 [2] = target: T2, TLR-5 (Homo sapiens, UniProt O60602); assay: Comparative TLR-5 test with HELA cells transfected with TLR-5 SEAP; type: cell-based; design: expressed in transfected cells; settings: 2 μg/mL flagellin; induced and noninduced controls both intensely blue
# Experimental: FIG. 13 comparative experiment: TLR-5 test with HELA cells transfected with TLR-5 SEAP induced with 2 μg/mL flagellin; both the induced cells and the noninduced controls show intense blue coloration.
# TLR-5 [3] = target: T2, TLR-5; assay: NIH-3T3 TLR-5 SEAP reporter gene test; type: cell-based; design: expressed in transfected cells; host or cells: NIH-3T3 (murine fibroblasts); settings: 2 μg/mL flagellin; BCIP
# Experimental: The cell line NIH-3T3 was transfected with TLR-5 and the reporter gene plasmid SEAP. The measures correspond to example 1.
# NIH-3T3 clone TLR-5 was inoculated in a density of 30,000 to 200,000 cells/well (24-well) in 500 μL/well in 0.5% FCS medium; induction occurs with 2 μg/mL flagellin; detection by incubation with 300 μL/well detection medium with BCIP.
# [4] = test system: Limulus amebocyte lysate proenzyme; settings: cited from earlier work
# TLR-4/CD14 [5] = target: T3, TLR-4/CD14 (Homo sapiens, UniProt O00206); assay: Comparative TLR-4 colour test with HEK blue 293 and other 293 fibroblasts transfected with TLR-4/CD14 SEAP; type: cell-based; settings: 100 ng/mL LPS; induced and noninduced controls both turn blue
# T3 construct: expressed in transfected cells; host or cells: HEK blue 293 and other 293 cells (clones K2, K4)
# Experimental: (§1) HEK blue 293 fibroblasts and other 293 fibroblasts were transfected with TLR-4/CD14 SEAP and induced with 100 ng/mL LPS. All other process parameters were chosen as in example 1 according to the invention.
# TLR-4/CD14 [6] = target: T3, TLR-4/CD14; assay: SDS-PAGE/Western Blot analysis of SEAP expression in HEK293 and other 293 cells transfected with TLR-4/CD14 SEAP; type: cell-based; settings: 100 ng/mL LPS; cell pellets
# Experimental: as §1
# In addition, a Western Blot analysis of gene expression was conducted in known fashion: first antibody: anti-SEAP; conjugated second antibody: anti-mouse POD; marker: SeeBlue® Plus2; prestained standard.
# human whole blood cells = settings: cited from earlier work
# T1 sequence (O00206 24-839): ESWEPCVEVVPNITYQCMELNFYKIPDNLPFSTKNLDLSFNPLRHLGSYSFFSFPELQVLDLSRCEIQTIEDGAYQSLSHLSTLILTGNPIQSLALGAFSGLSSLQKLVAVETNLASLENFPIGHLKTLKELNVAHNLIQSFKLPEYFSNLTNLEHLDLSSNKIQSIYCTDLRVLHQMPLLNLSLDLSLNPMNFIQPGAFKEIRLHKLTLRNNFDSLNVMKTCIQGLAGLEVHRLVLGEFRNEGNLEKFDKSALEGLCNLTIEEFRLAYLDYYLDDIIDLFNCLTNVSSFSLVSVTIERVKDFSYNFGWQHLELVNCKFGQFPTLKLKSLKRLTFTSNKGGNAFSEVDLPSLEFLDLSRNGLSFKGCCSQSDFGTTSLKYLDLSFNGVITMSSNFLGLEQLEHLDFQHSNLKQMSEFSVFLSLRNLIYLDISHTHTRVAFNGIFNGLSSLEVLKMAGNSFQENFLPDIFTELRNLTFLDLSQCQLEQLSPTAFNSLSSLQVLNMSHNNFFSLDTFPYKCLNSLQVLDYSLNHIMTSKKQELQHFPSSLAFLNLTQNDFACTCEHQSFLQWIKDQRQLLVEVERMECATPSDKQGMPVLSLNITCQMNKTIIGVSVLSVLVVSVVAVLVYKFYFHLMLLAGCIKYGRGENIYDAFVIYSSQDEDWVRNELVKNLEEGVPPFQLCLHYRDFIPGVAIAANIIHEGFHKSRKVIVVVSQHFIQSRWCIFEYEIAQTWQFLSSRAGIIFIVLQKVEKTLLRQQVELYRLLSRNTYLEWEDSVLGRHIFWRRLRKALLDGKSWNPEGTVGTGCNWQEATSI
# T1 sequence (Q9Y6Y9 17-160 limits assumed): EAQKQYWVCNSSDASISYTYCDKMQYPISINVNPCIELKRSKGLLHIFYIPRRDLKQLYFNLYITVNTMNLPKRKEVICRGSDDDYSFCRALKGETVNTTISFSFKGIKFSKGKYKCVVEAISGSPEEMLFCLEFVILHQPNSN
# T3 sequence (O00206 24-839): as the sequence (O00206 24-839) above
# T2 sequence (O60602 21-858): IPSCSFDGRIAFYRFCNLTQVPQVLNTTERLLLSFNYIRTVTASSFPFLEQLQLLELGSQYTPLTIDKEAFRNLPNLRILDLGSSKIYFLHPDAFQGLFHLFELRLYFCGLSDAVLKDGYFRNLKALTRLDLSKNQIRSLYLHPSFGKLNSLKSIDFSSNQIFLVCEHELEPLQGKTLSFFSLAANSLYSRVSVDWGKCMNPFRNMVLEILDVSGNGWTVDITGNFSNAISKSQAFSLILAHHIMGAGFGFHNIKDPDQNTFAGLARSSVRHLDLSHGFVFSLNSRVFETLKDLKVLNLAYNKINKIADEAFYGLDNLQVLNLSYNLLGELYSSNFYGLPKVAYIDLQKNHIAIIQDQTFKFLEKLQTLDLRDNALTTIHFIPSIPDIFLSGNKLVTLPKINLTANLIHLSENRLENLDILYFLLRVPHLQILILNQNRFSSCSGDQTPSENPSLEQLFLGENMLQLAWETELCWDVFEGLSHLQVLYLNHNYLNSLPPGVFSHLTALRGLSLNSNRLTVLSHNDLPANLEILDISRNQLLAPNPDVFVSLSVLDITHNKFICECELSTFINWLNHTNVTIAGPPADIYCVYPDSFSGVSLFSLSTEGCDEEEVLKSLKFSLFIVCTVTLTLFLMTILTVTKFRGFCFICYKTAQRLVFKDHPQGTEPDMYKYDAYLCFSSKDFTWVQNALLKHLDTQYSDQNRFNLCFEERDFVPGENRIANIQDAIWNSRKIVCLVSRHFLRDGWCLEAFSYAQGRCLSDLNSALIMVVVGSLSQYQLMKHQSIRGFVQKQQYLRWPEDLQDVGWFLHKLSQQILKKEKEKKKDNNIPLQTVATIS
substance,measurement,setting,value
Poly IC,color change of detection medium (specificity),TLR-4/CD14 [1]; induced with 25 μg/mL nonspecific pyrogen each,no color change
flagellin,specific induction / color test,TLR-5 [2],No specific induction is possible
same,blue coloration of induced cells,TLR-5 [3],specific blue coloration
lipopolysaccharide [LPS],detection limit / sensitivity of LAL,[4],3 pg/mL
same,specific induction / color test,TLR-4/CD14 [5],no specific induction; also recorded: a specific detection is not possible
same,"alkaline phosphatase (SEAP) expression, induced vs noninduced cells",TLR-4/CD14 [6],in the same amount
same,"blue coloration of induced cells, frozen and rethawed cells","TLR-4/CD14 [1]; 100 pg/mL, NIH-3T3 TLR-4/CD14 SEAP P40, induction after 24 hours, detection after 3 hours",specific blue coloration
same,"SEAP activity, BCIP color reaction after thawing","TLR-4/CD14 [1]; 100 ng/mL LPS, thawed NIH-3T3 clone 4/5 TLR-4/CD14, BCIP",deep dark blue
same,sensitivity of IPT,human whole blood cells,20 to 50 pg/mL
